# Reference: patent publication US20150223465A1, “COMPOSITION CONTAINING 3-CYCLOPROPYL-1-ENYL-PROPANOIC ACID SALTS AND A CARRIER” (Yissum Research Development Company of the Hebrew …, priority 2012, published 2015)
# Tests used:
# Assay type in all cases: in vivo, carnation (Dianthus caryophyllus)
# carnation flowers [1] = assay: Spraying cut carnations with CPAS solution, then 2 ppm ethylene for 24 h
# Experimental: Carnation flowers were harvested at the full bloom stage, when the outer petals deflected at right angles to the stem. The flowers were selected for uniformity in terms of flower diameter and placed in tap water. […] The deionized water was used to avoid salt precipitation due to the existence of calcium in tap water. The treatment solution contained a surfactant, Triton-X 100™ (0.05%). Twenty-four hours after the spraying application, the flowers were treated with 2 ppm ethylene for 24 hours. During treatment and during observation of vase-life, the flowers were kept at 22° C. Each treatment was carried out in three replicates, 3 flowers in each replicate.
# Carnation flowers were harvested at the full bloom stage, when the outer petals deflected at right angles to the stem. The flowers were selected for uniformity in terms of flower diameter and placed in tap water. The flowers were then sprayed with various concentrations of CPAS (sodium salt) ranging from 15 to 60 ppm dissolved in NaHCO3 (pH 8.2, 20 and 40 mM) in tap water. The treatment solution contained a surfactant, Kinetic® (0.05%). Twenty-four hours after the CPAS spraying application, the flowers were treated with 2 ppm ethylene for 24 hours. During treatment and during observation of vase-life, the flowers were kept 22° C. Each treatment was carried out in three replicates, 3 flowers in each replicate.
# carnation flowers [2] = assay: Loading 14-18 h with CPAS, 0-72 h in tap water, then ethylene for 24 h; vase life assessment; details: for protection from ethylene-induced senescence: loading 14-18 h, 1.0 ppm ethylene 24 h
# Experimental: Carnation flower stems were cut under tap water to the desired lengths (36 and 55 cm). Four flowers per treatment, in groups of two flowers each, were loaded for 14-18 hours in 20 mL of treatment solutions containing 0, 30, 60 and 120 mg L^−1 CPAS in either an aqueous solution containing sodium carbonate/sodium bicarbonate buffer (40 mM, pH=9.5) and 0.025% Tween 20 or an aqueous solution containing K-Phosphate Buffer (40 mM, pH=7.8) and 0.025% Tween 20. At the end of CPAS loading (14-18 hours), groups of treated flowers were transferred into tap water for 0, 24, 48 and 72 hours. The cut flowers were then exposed to 1.0 ppm ethylene for 24 hours. At the end of the ethylene treatment, the flowers were ventilated and left under controlled conditions for additional 11, 10, 9, 8 days, respectively, for vase life assessment. Pictures of were taken 13 days after beginning of the experiment. It is noted that the carnation flowers tested were highly sensitive to ethylene, and therefore exposure to ethylene at an amount of 1.0 ppm was effected.
# cut carnation flowers [3] = assay: Delaying senescence of cut carnation flowers: loading 24 h in CPAS solution, then 2 ppm ethylene for 24 h, visual inspection/photographs; design: key: The result “−” means no ethylene antagonizing effect by visual inspection.; The result “+++” means high ethylene antagonizing effect by visual inspection.; The result “++++” means very high ethylene antagonizing effect by visual inspection; details: CPAS sodium salt 20-120 ppm, 36-55 cm stems
# Source text: (§1) The ethylene antagonizing effect of composition described herein can be assessed by its effect of delaying senescence of cut plants, such as cut flowers. Some embodiments of the present invention are based on the use of the composition described herein to treat cut flowers for delaying senescence of the cut flowers.
# (§2) Cut Flowers: Unless otherwise noted, carnation flowers grown in a greenhouse were harvested at the beginning of flower opening stage, early in the morning, and were immediately brought to the laboratory. The flowers were either processed immediately or stored in a cold room (4° C.) for 1 to 5 days as required.
# Treatment Procedure: The flower stems were cut under tap water to the desired lengths (15 cm-55 cm). Four flowers for each treatment group (of two flowers per each groups) were loaded in a 20 mL aqueous treatment solution (or “loading solution”) for 24 hours. The treatment solution was placed in a 35 mL tube. The loading solutions of CPAS in buffers were prepared in distilled water, as described hereinafter. At the end of CPAS loading, the flowers were transferred to tap water for 1 to 4 days until the cut flowers open. The cut flowers were then exposed to 2 ppm ethylene for 24 hours. Control cut flowers were loaded in a control solution without CPAS in the same manner as the treated cut flowers, and were thereafter exposed to ethylene or air. At the end of ethylene exposure, the flowers were ventilated and left in tap water under controlled conditions (a temperature of 22° C., a relative humidity of 80%, and continuous fluorescent light) for additional 5 days for senescence assessment.
# cut carnation flowers [4] = assay: as above; design: key: The result “−” means no ethylene antagonizing effect by visual inspection.; The result “+” means low ethylene antagonizing effect by visual inspection.; The result “++” means medium ethylene antagonizing effect by visual inspection.; The result “+++” means high ethylene antagonizing effect by visual inspection.; The result “++++” means very high ethylene antagonizing effect by visual inspection; details: CPAS sodium salt 20-120 ppm, 36-55 cm stems
# Source text: as §1, §2
# Treatment Procedure: The flower stems were cut under tap water to the desired lengths (15 cm-55 cm). Four flowers for each treatment group (of two flowers per each groups) were loaded in a 20 mL aqueous treatment solution (or “loading solution”) for 24 hours. The treatment solution was placed in a 35 mL tube. The loading solutions of CPAS in buffers were prepared in distilled water, as described hereinafter. At the end of CPAS loading, the flowers were transferred to tap water for 1 to 4 days until the cut flowers open. The cut flowers were then exposed to 2 ppm ethylene for 24 hours. Control cut flowers were loaded in a control solution without CPAS in the same manner as the treated cut flowers, and were thereafter exposed to ethylene or air. […]
smiles,measurement,setting,value
"O=C([O-])CCC1=CC1.[Na+] [CPAS, 3-cyclopropyl-1-enyl-propanoic acid salt]",effect on ethylene-induced flower senescence,"carnation flowers [1]; 15 ppm CPAS in NaHCO3 pH 8.2 (20 and 40 mM), Kinetic 0.05%, tap water",little effect
same,effect on ethylene-induced flower senescence,"carnation flowers [1]; 40 ppm CPAS in Na2CO3/NaHCO3 buffer pH 9.2 below 60 mM, Triton-X 100 0.05%, deionized water",little effect
same,effect on ethylene-induced flower senescence,"carnation flowers [1]; 80 and 120 ppm CPAS in Na2CO3/NaHCO3 buffer pH 9.2, 40 and 60 mM, Triton-X 100 0.05%",significant effect
same,"delay of flower senescence, tap water versus DI water",carnation flowers [1]; CPAS in NaHCO3 (40 mM) dissolved in tap water compared with DI water,more efficiently
same,effect on ethylene-induced flower senescence,"carnation flowers [1]; higher CPAS concentrations (up to 60 ppm) in NaHCO3 pH 8.2 (20 and 40 mM), Kinetic 0.05%, tap water",significantly delayed flower senescence
same,protection from ethylene-induced senescence,"carnation flowers [2]; CPAS 60 and 120 mg L^−1 in K-Phosphate buffer 40 mM pH 7.8, 0.025% Tween 20",almost no protection
same,protection from ethylene-induced senescence,"carnation flowers [2]; CPAS 60 and 120 mg L^−1 in sodium carbonate/sodium bicarbonate buffer 40 mM pH 9.5, 0.025% Tween 20",significantly protected
same,protection with ethylene treatment 2 and 3 days after pretreatment,carnation flowers [2]; CPAS at the two higher concentrations in Na-Carbonate buffer,more protected as the incubation time increases
same,resistance to ethylene-induced flower senescence after pretreatment,carnation flowers [2]; ethylene exposure 3 days after pretreatment with CPAS,resistant
same,"Results (efficacy of CPAS, ethylene antagonizing effect by visual inspection)",cut carnation flowers [3]; Glycine/NaOH buffer 20 mM pH 8.8,−
same,"Results (efficacy of CPAS, ethylene antagonizing effect by visual inspection)",cut carnation flowers [3]; H3BO3/NaOH buffer 20 mM pH 9.2,−
same,"Results (efficacy of CPAS, ethylene antagonizing effect by visual inspection)",cut carnation flowers [3]; HCl-TRIS buffer 20 mM pH 8.4,−
same,"Results (efficacy of CPAS, ethylene antagonizing effect by visual inspection)",cut carnation flowers [3]; Isopropylamine 500-1000 ppm pH 11.0,−
same,"Results (efficacy of CPAS, ethylene antagonizing effect by visual inspection)",cut carnation flowers [3]; K-Citrate/Citric Ac. buffer 20 mM pH 4.65,−
same,"Results (efficacy of CPAS, ethylene antagonizing effect by visual inspection)","cut carnation flowers [3]; K-Citrate/Citric Ac. buffer 20 mM pH 5.0 with 2,3-butanedione (500 ppm)",−
same,"Results (efficacy of CPAS, ethylene antagonizing effect by visual inspection)",cut carnation flowers [3]; K-Citrate/Citric Ac. buffer 20 mM pH 5.0 with EMK (5%),−
same,"Results (efficacy of CPAS, ethylene antagonizing effect by visual inspection)",cut carnation flowers [3]; K-Citrate/Citric Ac. buffer 20 mM pH 5.0 with PVP (0.5%),−
same,"Results (efficacy of CPAS, ethylene antagonizing effect by visual inspection)",cut carnation flowers [3]; Na2B4O7/NaOH buffer 20 mM pH 9.4,−
same,"Results (efficacy of CPAS, ethylene antagonizing effect by visual inspection)",cut carnation flowers [3]; Na2CO3/NaHCO3 buffer 40 mM pH 9.2-9.4 with Chloramphenicol 150 μM,++++
same,"Results (efficacy of CPAS, ethylene antagonizing effect by visual inspection)",cut carnation flowers [3]; Na2CO3/NaHCO3 buffer 20-80 mM pH 9.2-9.4,++++
same,"Results (efficacy of CPAS, ethylene antagonizing effect by visual inspection)","cut carnation flowers [3]; Na-Phosphate buffer 20 mM pH 6.0 + NaHCO3 60-80 mM, pH 7.4",+++
same,"Results (efficacy of CPAS, ethylene antagonizing effect by visual inspection)",cut carnation flowers [3]; Na-Phosphate buffer 20 mM pH 7.6,−
same,"Results (efficacy of CPAS, ethylene antagonizing effect by visual inspection)","cut carnation flowers [3]; Na-Phosphate/Citrate buffer 20 mM pH 6.0 + NaHCO3 60-80 mM, pH 7.2",+++
same,"Results (efficacy of CPAS, ethylene antagonizing effect by visual inspection)",cut carnation flowers [3]; NaHCO3 40 mM pH 8.2 with Chloramphenicol 50 μM,+++
same,"Results (efficacy of CPAS, ethylene antagonizing effect by visual inspection)",cut carnation flowers [3]; NaHCO3 20-80 mM pH 8.2,+++
same,"Results (efficacy of CPAS, ethylene antagonizing effect by visual inspection)",cut carnation flowers [4]; EDTA 500-1000 ppm,+
same,"Results (efficacy of CPAS, ethylene antagonizing effect by visual inspection)",cut carnation flowers [4]; KHCO3 20-80 mM pH 8.2,++
